Measured values as given in US9237747B2, “Herbicidal compositions comprising 4-amino-3-chloro-5-fluoro-6-(4-chloro-2-fluoro-3-methoxyphenyl) pyridine-2-carboxylic acid or a derivative thereof and insecticides” (priority 2013, dated 2016).
Several values for one entry are separate records, joined by “and”; a condition that tells them apart may be missing. Identical values can stand only once. Like-named read-outs stand apart in the source and are kept apart here.

Columns and labels:
[1] = test system: ECHCG; assay type: in vivo, Echinochloa crus-galli
Summary of the method: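 Foliar spray, 187 L/ha, track sprayer; 1.25% v/v COC, 8.1% acetone, 0.25% DMSO in spray. Plants at 1st–4th true leaf, greenhouse 29/26 °C. Visual injury 0–100% (0 = none, 100 = complete kill) at ~3 wk after treatment; expected mixture response by Colby.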

[2] = test system: BRAPP; test: Postemergence foliar-applied weed control, direct-seeded rice (greenhouse); assay type: in vivo, Brachiaria platyphylla
Text: Seeds or nutlets of the desired test plant species were planted in a soil matrix prepared by mixing a loam or sandy loam soil (e.g., 28.6 percent silt, 18.8 percent clay, and 52.6 percent sand, with a pH of about 5.8 and an organic matter content of about 1.8 percent) and calcareous grit in an 80 to 20 ratio. The soil matrix was contained in plastic pots with a volume of 1 quart and a surface area of 83.6 square centimeters (cm^2). When required to ensure good germination and healthy plants, a fungicide treatment and/or other chemical or physical treatment was applied. The plants were grown for 8-22 days in a greenhouse with an approximate 14 hour (h) photoperiod which was maintained at about 29° C. during the day and 26° C. during the night. Nutrients (Peters Excel® 15-5-15 5-Ca 2-Mg and iron chelate) were applied in the irrigation solution as needed and water was added on a regular basis. Supplemental lighting was provided with overhead metal halide 1000-Watt lamps as necessary. The plants were employed for testing when they reached the first through fourth true leaf stage.
Treatments consisted of the acid or esters of 4-amino-3-chloro-6-(4-chloro-2-fluoro-3-methoxyphenyl)-5-fluoropyridine-2-carboxylic acid (Compound A), each formulated as an SC (suspension concentrate), and various insecticidal components alone and in combination. Forms of compound A were applied on an acid equivalent basis.
Treatment requirements were calculated based upon the rates being tested, the concentration of active ingredient or acid equivalent in the formulation, and a 12 milliliter (mL) application volume at a rate of 187 liters per hectare (L/ha).
For treatments comprised of formulated compounds, measured amounts of compounds were placed individually in 25 mL glass vials and diluted in a volume of 1.25% volume per volume (v/v) Agri-Dex® crop oil concentrate to obtain 12× stock solutions. […] Application solutions were prepared by adding an appropriate amount of each stock solution (e.g., 1 mL) and diluted to the appropriate final concentrations with the addition of […] of an aqueous mixture of 1.25% (v/v) crop oil concentrate so that the final spray solutions contained 1.25+/−0.05% (v/v) crop oil concentrate.
As required, additional water and/or 97:3 v/v acetone/DMSO was added to individual application solutions so that the final acetone and DMSO concentrations of the application solutions being compared were 8.1% and 0.25%, respectively.
All stock solutions and applications solutions were visually inspected for compound compatibility prior to application. Spray solutions were applied to the plant material with an overhead Mandel track sprayer equipped with 8002E nozzles calibrated to deliver 187 L/ha over an application area of 0.503 square meters (m^2) at a spray height of 18 to 20 inches (46 to 50 cm) above average plant canopy height. Control plants were sprayed in the same manner with the solvent blank.
The treated plants and control plants were placed in a greenhouse as described above and watered by sub-irrigation to prevent wash-off of the test compounds. After approximately 3 weeks, the condition of the test plants as compared to that of the untreated plants was determined visually and scored on a scale of 0 to 100 percent where 0 corresponds to no injury or growth inhibition and 100 corresponds to complete kill.
Colby's equation was used to determine the herbicidal effects expected from the mixtures (Colby, S. R. Calculation of the synergistic and antagonistic response of herbicide combinations. Weeds 1967, 15, 20-22.).
The following equation was used to calculate the expected activity of mixtures containing two active ingredients, A and B: Expected=A+B−(A×B/100)

COc1c(Cl)ccc(-c2nc(C(=O)O)c(Cl)c(N)c2F)c1F [Compound A Acid, 4-amino-3-chloro-6-(4-chloro-2-fluoro-3-methoxyphenyl)-5-fluoropyridine-2-carboxylic acid]
Visual Weed Control (%) - 20 DAA ECHCG Obs ([1]; 4.38 g ae/ha alone): 60%
Visual Weed Control (%) - 20 DAA ECHCG Obs ([1]; 5.3 g ae/ha alone): 65%
Visual Weed Control (%) - 20 DAA ECHCG Obs ([1]; 8.75 g ae/ha alone): 80%
Visual Weed Control (%) - 20 DAA ECHCG Obs ([1]; 10.6 g ae/ha alone): 90%
Visual Weed Control (%) - 20 DAA ECHCG Obs ([1]; 17.5 g ae/ha alone): 95%
Visual Weed Control (%) - 21 DAA ECHCG Obs ([1]; 5.3 g ae/ha alone): 65%
Visual Weed Control (%) - 21 DAA ECHCG Obs ([1]; 10.6 g ae/ha alone): 85%
Visual Weed Control (%) - 21 DAA ECHCG Obs ([1]; 21.2 g ae/ha alone): 95%
Visual Weed Control (%) - 20 DAA ECHCG Obs ([1]; 21.2 g ae/ha alone): 95%
Visual Weed Control (%) - 20 DAA BRAPP Obs ([2]; 4.38 g ae/ha alone): 70%

COc1c(Cl)ccc(-c2nc(C(=O)OCc3ccccc3)c(Cl)c(N)c2F)c1F [Compound A Benzyl Ester]
Visual Weed Control (%) - 20 DAA ECHCG Obs ([1]; 4.38 g ae/ha alone): 60% and 70%
Visual Weed Control (%) - 19 DAA ECHCG Obs ([1]; 8 g ae/ha alone): 85%
Visual Weed Control (%) - 20 DAA ECHCG Obs ([1]; 8 g ae/ha alone): 70%
Visual Weed Control (%) - 22 DAA ECHCG Obs ([1]; 8 g ae/ha alone): 50%
Visual Weed Control (%) - 20 DAA ECHCG Obs ([1]; 8.75 g ae/ha alone): 85% and 80%
Visual Weed Control (%) - 19 DAA ECHCG Obs ([1]; 16 g ae/ha alone): 85%
Visual Weed Control (%) - 22 DAA ECHCG Obs ([1]; 16 g ae/ha alone): 60%
Visual Weed Control (%) - 20 DAA ECHCG Obs ([1]; 17.5 g ae/ha alone): 90% and 95%
Visual Weed Control (%) - 21 DAA ECHCG Obs ([1]; 4.38 g ae/ha alone): 70%
Visual Weed Control (%) - 21 DAA ECHCG Obs ([1]; 8.75 g ae/ha alone): 85%
Visual Weed Control (%) - 21 DAA ECHCG Obs ([1]; 17.5 g ae/ha alone): 90%
Visual Weed Control (%) - 22 DAA ECHCG Obs ([1]; 22 DAA, 8 g ae/ha alone): 45% and 50%
Visual Weed Control (%) - 22 DAA ECHCG Obs ([1]; 22 DAA, 16 g ae/ha alone): 60%
Visual Weed Control (%) - 22 DAA ECHCG Obs ([1]; 22 DAA, 32 g ae/ha alone): 90% and 95%
Visual Weed Control (%) - 19 DAA ECHCG Obs ([1]; 32 g ae/ha alone): 95%
Visual Weed Control (%) - 20 DAA BRAPP Obs ([2]; 4.38 g ae/ha alone): 75%
Visual Weed Control (%) - 20 DAA BRAPP Obs ([2]; 8 g ae/ha alone): 55%
Visual Weed Control (%) - 21 DAA BRAPP Obs ([2]; 8 g ae/ha alone): 70%
Visual Weed Control (%) - 20 DAA BRAPP Obs ([2]; 8.75 g ae/ha alone): 75%
Visual Weed Control (%) - 20 DAA BRAPP Obs ([2]; 17.5 g ae/ha alone): 95%
